ChEMBL document CHEMBL2074225, “Tissue distribution and chemical induction of multiple drug resistance genes in rats” (Drug Metab Dispos, 2002)

Key:
[1] = target: Multidrug resistance protein 1a (Rattus norvegicus) (UniProt Q6PSM0); assay: (§1) TP_TRANSPORTER: Branched DNA assay in vivo SD rat, liver; format: functional, organism-based; conditions: Sprague-Dawley
[2] = target: T1, ATP-dependent translocase ABCB1 (Rattus norvegicus, UniProt P43245); assay: as §1; format: functional, organism-based, Sprague-Dawley
T1 sequence (P43245 whole entry): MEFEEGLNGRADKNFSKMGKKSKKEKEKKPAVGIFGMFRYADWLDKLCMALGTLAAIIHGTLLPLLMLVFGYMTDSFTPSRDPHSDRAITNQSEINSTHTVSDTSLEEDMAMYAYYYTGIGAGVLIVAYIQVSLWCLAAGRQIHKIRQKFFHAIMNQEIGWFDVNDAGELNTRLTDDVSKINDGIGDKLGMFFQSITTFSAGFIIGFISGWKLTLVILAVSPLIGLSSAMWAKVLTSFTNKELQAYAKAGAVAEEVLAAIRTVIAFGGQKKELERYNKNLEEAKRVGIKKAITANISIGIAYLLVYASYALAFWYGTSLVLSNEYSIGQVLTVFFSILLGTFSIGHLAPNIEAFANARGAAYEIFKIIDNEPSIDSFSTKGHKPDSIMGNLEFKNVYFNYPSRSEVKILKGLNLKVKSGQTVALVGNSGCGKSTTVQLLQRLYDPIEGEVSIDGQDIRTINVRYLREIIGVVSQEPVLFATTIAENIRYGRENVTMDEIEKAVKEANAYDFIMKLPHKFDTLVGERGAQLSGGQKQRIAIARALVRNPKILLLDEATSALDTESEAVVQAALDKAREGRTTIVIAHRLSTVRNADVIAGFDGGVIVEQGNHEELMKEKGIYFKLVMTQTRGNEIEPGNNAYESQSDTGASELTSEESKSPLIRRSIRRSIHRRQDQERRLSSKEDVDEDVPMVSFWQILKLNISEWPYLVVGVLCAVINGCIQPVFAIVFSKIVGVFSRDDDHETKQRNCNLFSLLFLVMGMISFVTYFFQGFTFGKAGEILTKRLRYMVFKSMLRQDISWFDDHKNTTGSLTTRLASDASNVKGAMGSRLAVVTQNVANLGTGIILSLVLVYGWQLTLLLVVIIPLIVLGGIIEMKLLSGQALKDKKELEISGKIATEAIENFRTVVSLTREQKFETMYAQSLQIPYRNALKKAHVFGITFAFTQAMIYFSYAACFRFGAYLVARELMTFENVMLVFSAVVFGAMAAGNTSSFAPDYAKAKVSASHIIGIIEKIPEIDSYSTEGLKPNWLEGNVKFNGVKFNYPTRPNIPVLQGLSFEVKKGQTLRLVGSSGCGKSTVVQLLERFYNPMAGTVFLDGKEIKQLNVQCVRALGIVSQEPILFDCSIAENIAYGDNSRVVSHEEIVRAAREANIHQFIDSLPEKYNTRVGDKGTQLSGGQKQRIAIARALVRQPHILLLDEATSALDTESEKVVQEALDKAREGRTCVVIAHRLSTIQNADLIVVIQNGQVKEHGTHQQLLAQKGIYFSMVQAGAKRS

[3] = target: T1, ATP-dependent translocase ABCB1; assay: TP_TRANSPORTER: Branched DNA assay in vivo SD rat, kidney; format: functional, organism-based, Sprague-Dawley

Multidrug resistance protein 1a (Rattus norvegicus), sequence (Q6PSM0 as listed by the source): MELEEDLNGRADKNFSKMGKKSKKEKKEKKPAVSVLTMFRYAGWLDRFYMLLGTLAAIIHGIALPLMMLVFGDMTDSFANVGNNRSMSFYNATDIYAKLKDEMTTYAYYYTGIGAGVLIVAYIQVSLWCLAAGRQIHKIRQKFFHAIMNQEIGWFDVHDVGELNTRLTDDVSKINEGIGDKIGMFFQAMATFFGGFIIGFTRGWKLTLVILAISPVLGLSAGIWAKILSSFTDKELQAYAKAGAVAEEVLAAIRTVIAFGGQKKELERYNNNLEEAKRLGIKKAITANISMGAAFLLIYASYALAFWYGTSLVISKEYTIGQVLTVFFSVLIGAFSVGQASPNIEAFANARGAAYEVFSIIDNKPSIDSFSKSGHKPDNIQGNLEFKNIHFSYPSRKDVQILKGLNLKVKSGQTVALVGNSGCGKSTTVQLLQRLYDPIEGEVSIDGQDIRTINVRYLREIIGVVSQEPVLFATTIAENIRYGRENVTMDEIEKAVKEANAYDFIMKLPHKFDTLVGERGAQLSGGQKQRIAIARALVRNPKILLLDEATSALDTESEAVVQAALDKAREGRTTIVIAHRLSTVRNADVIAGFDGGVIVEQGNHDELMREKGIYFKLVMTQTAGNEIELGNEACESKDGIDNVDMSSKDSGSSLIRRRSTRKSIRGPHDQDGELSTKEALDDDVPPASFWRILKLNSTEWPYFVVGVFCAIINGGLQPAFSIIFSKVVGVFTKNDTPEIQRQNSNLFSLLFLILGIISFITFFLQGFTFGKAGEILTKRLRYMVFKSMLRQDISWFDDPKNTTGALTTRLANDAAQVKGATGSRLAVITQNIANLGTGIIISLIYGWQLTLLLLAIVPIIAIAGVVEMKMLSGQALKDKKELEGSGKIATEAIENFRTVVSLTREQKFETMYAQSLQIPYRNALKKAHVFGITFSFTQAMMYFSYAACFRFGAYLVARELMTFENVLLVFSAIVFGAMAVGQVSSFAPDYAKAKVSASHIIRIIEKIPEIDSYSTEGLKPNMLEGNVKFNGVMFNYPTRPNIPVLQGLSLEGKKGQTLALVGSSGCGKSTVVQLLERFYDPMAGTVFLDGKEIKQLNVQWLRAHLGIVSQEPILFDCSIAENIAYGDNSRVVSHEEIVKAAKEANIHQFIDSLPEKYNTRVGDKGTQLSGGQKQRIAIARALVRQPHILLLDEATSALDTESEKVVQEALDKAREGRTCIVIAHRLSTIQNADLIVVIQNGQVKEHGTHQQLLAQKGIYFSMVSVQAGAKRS

With `C=CCSCC=C` the Activity [1] was “inducer [+]”.
For `Cc1c(-c2cnccn2)ssc1=S`, the Activity [1] was “inducer [+]”.
With `NNC(=O)c1ccncc1` the Activity [1] was “inducer [+]”.
In the case of `OCc1c[nH]c2ccccc12` [INDOLE-3-CARBINOL], the Activity [2] is reported as “inducer [+]”.
In the case of `Clc1ccc(-c2cc(Cl)c(Cl)cc2Cl)c(Cl)c1` [POLYCHLORINATED BIPHENYL 99], the Activity [2] is reported as “inducer [+]”.
`CN(N=O)C(=O)N[C@@H](C=O)[C@@H](O)[C@H](O)[C@H](O)CO` [STREPTOZOCIN] was tested, and the Activity [3] was “inducer [+]” and the Activity [2] was “inducer [+]”.
